The NIST ThermoML archive (doi:10.1021/acs.jced.7b00242)
± gives the expanded uncertainty stated by the source.

Columns and labels:
[1] = refractive index (Na D-line) (dimensionless)

CCCCCCCCCCCC[n+]1ccn(C)c1.[Cl-] [1-dodecyl-3-methylimidazolium chloride]
Details	Normal melting temperature [°C]
Crystal, DTA	96.22 ± 1.1

CCCCCCCCCCCCn1cc[n+](C)c1.O=S(=O)([N-]S(=O)(=O)C(F)(F)F)C(F)(F)F
101 kPa, Liquid
Details	mass density, Vibrating tube method [kg/m3]	viscosity, Concentric cylinders viscometry [mPa·s]
293.15 K	1253.1 ± 20	–
298.15 K	1248 ± 20	130.5 ± 21
303.15 K	1242 ± 20	101.1 ± 16
313.15 K	1232.2 ± 20	63.54 ± 10
323.15 K	1224.1 ± 20	42.41 ± 6.8
333.15 K	1216 ± 20	29.67 ± 4.8
343.15 K	1208.1 ± 20	21.63 ± 3.5
353.15 K	1200 ± 20	16.31 ± 2.6
363.15 K	1191.8 ± 20	12.65 ± 2

Liquid, Ring tensiometer
Details	surface tension liquid-gas [mN/m]
298.15 K	28.1 ± 0.9
303.15 K	27.7 ± 0.9
313.15 K	26.9 ± 0.9
323.15 K	25.9 ± 0.9
333.15 K	24.9 ± 0.9
343.15 K	24.1 ± 0.9
353.15 K	23.3 ± 0.9
363.15 K	22.5 ± 0.9

Details	Normal melting temperature [°C]
Crystal, DTA	22.50 ± 1.1

[1], 101 kPa, Liquid, Standard Abbe refractometry
Details	refractive index
293.15 K	1.4385 ± 0.004
298.15 K	1.437 ± 0.004
303.15 K	1.4354 ± 0.004
313.15 K	1.4324 ± 0.004
323.15 K	1.4295 ± 0.004
333.15 K	1.4265 ± 0.004
343.15 K	1.4237 ± 0.004
353.15 K	1.4209 ± 0.004
363.15 K	1.4179 ± 0.004

CCCCCCCCCCn1cc[n+](C)c1.O=S(=O)([N-]S(=O)(=O)C(F)(F)F)C(F)(F)F
101 kPa, Liquid
Details	mass density, Vibrating tube method [kg/m3]	viscosity, Concentric cylinders viscometry [mPa·s]
273.15 K	1292.7 ± 20	–
289.15 K	1287.3 ± 20	–
293.15 K	1282.3 ± 20	139.9 ± 22
298.15 K	1278.4 ± 20	101.2 ± 16
303.15 K	1274.2 ± 20	79.17 ± 13
313.15 K	1265.3 ± 20	50.86 ± 8.1
323.15 K	1256.3 ± 20	34.51 ± 5.5
333.15 K	1247.5 ± 20	24.5 ± 3.9
343.15 K	1239.4 ± 20	18.08 ± 2.9
353.15 K	1230.6 ± 20	13.78 ± 2.2
363.15 K	1222.3 ± 20	10.79 ± 1.7

Liquid, Ring tensiometer
Details	surface tension liquid-gas [mN/m]
298.15 K	29.8 ± 0.9
303.15 K	29.2 ± 0.9
313.15 K	28.3 ± 0.9
323.15 K	27.5 ± 0.9
333.15 K	26.9 ± 0.9
343.15 K	26.3 ± 0.9
353.15 K	25.7 ± 0.9
363.15 K	25.2 ± 0.9

Details	Normal melting temperature [°C]
Crystal, DTA	3.04 ± 1.1

[1], 101 kPa, Liquid, Standard Abbe refractometry
Details	refractive index
293.15 K	1.4366 ± 0.004
298.15 K	1.4351 ± 0.004
303.15 K	1.4336 ± 0.004
313.15 K	1.4306 ± 0.004
323.15 K	1.4278 ± 0.004
333.15 K	1.425 ± 0.004
343.15 K	1.4222 ± 0.004
353.15 K	1.4194 ± 0.004
363.15 K	1.4166 ± 0.004

CCCCCCCCCCn1cc[n+](C)c1.[Cl-] [1-decyl-3-methylimidazolium chloride]
Liquid
Details	mass density [kg/m3]	viscosity [mPa·s]
298.15 K, 101 kPa, Vibrating tube method	984 ± 20	–
303.15 K, 101 kPa, Vibrating tube method	979.7 ± 20	–
313.15 K, 100 kPa, Concentric cylinders viscometry	–	3716 ± 630
313.15 K, 101 kPa, Vibrating tube method	974.4 ± 20	–
323.15 K, 100 kPa, Concentric cylinders viscometry	–	1613 ± 270
323.15 K, 101 kPa, Vibrating tube method	968.1 ± 20	–
333.15 K, 100 kPa, Concentric cylinders viscometry	–	778.9 ± 130
333.15 K, 101 kPa, Vibrating tube method	962.4 ± 20	–
343.15 K, 100 kPa, Concentric cylinders viscometry	–	411.2 ± 67
343.15 K, 101 kPa, Vibrating tube method	956.4 ± 20	–
353.15 K, 100 kPa, Concentric cylinders viscometry	–	233.7 ± 38
353.15 K, 101 kPa, Vibrating tube method	950.7 ± 20	–
363.15 K, 100 kPa, Concentric cylinders viscometry	–	141.7 ± 23
363.15 K, 101 kPa, Vibrating tube method	943.8 ± 20	–

Liquid, Ring tensiometer
Details	surface tension liquid-gas [mN/m]
303.15 K	34 ± 0.9
313.15 K	30.2 ± 0.9
323.15 K	28.4 ± 0.9
333.15 K	27.8 ± 0.9
343.15 K	27 ± 0.9
353.15 K	26.2 ± 0.9
363.15 K	25.5 ± 0.9

Details	Normal melting temperature [°C]
Crystal, DTA	28.96 ± 1.1

[1], 100 kPa, Liquid, Standard Abbe refractometry
Details	refractive index
293.15 K	1.5002 ± 0.0048
298.15 K	1.4988 ± 0.0054
303.15 K	1.4972 ± 0.0058
313.15 K	1.4937 ± 0.0064
323.15 K	1.4897 ± 0.0064
333.15 K	1.4864 ± 0.0068
343.15 K	1.4834 ± 0.0074
353.15 K	1.4806 ± 0.0078
363.15 K	1.4788 ± 0.009

CCCCCCCCCCCCCCn1cc[n+](C)c1.O=S(=O)([N-]S(=O)(=O)C(F)(F)F)C(F)(F)F
101 kPa, Liquid
Details	mass density, Vibrating tube method [kg/m3]	viscosity, Concentric cylinders viscometry [mPa·s]
303.15 K	1197.1 ± 20	–
313.15 K	1187.6 ± 20	83.54 ± 13
323.15 K	1180 ± 20	54.36 ± 8.7
333.15 K	1171.3 ± 20	37.21 ± 6
343.15 K	1163.1 ± 20	26.58 ± 4.3
353.15 K	1154.6 ± 20	19.68 ± 3.1
363.15 K	1146.5 ± 20	15.04 ± 2.4

surface tension liquid-gas [mN/m]
Details	303.15 K	313.15 K	323.15 K	333.15 K	343.15 K	353.15 K	363.15 K
Metastable liquid, Ring tensiometer	26.3 ± 0.9	–	–	–	–	–	–
Ring tensiometer, Liquid	–	25.3 ± 0.9	24.5 ± 0.9	23.7 ± 0.9	22.9 ± 0.9	22.3 ± 0.9	21.7 ± 0.9

Details	Normal melting temperature [°C]
Crystal, DTA	34.4 ± 1.1

refractive index, [1], 101 kPa
Details	303.15 K	313.15 K	323.15 K	333.15 K	343.15 K	353.15 K	363.15 K
Metastable liquid, Standard Abbe refractometry	1.4384 ± 0.004	–	–	–	–	–	–
Standard Abbe refractometry, Liquid	–	1.4352 ± 0.004	1.4322 ± 0.004	1.4292 ± 0.004	1.4262 ± 0.004	1.4233 ± 0.004	1.4204 ± 0.004
